{"source": "patent US9969758B2", "about": "“Antimicrobial compounds” (BIOMERIEUX, priority 2014, dated 2018)", "tested_on": "E. cloacae (27)", "test": "MIC by agar dilution", "type": "cell-based, Enterobacter cloacae", "outline": "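Agar dilution on peptone-free medium with 2% lysed horse blood, NAD and hemin (25.0 μg/mL each), compounds 0.0031 to 8.0 μg/mL; inoculum 10 000 CFU/spot, 22 h at 37° C. Fosfomycin tested in IsoSensitest medium plus 25.0 μg/mL glucose-6-phosphate; at least two replicates.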", "data": [{"smiles": "C[C@H](N)C(=O)N[C@@H](C)P(=O)(O)O", "note": "[Alafosfalin, L-alanyl-L-1-aminoethylphosphonic acid]", "values": [{"measurement": "activity relative to fosfomycin", "setting": "E. cloacae", "result": "~32", "unit": "times"}, {"measurement": "MIC Range", "setting": "E. cloacae (27)", "result": "0.125 to 4", "unit": "µg/mL"}, {"measurement": "concentration by which all the isolates were inhibited", "setting": "E. cloacae isolates (n=27)", "result": 4, "unit": "µg/mL"}, {"measurement": "MIC50", "setting": "Enterobacter cloacae, E. cloacae (27), read-out: MIC50", "result": 1, "unit": "µg/mL"}, {"measurement": "MIC90", "setting": "Enterobacter cloacae, E. cloacae (27), read-out: MIC90", "result": 1, "unit": "µg/mL"}, {"measurement": "MIC", "setting": "Enterobacter cloacae, E. cloacae (27), read-out: Modal MIC (most frequent MIC)", "result": 1, "unit": "µg/mL"}]}]}
